Experimental data published in patent publication US20220267390A1, “MPS MODIFIED PEPTIDES AND USE THEREOF” (The Regents of the University of California, priority 2019, published 2022).
Where a SMILES comes first, the peptide text is derived from it. Where no end group is shown, it is not given here. [ ]: non-standard residue; d: D form.

system: α-SMA and phospho-AKT; experiment: Western blot of α-SMA and phospho-AKT in primary IPF fibroblasts; type: cell-based, human; conditions: nintedanib 1000 nM, 48 hours
Description: FIGS. 11A-11B: (FIG. 11A) Western blot analysis of α-SMA and phospho-AKT in primary IPF fibroblasts with nintedanib (1000 nM) and/or MPS (100 μM) for 48 hours. (FIG. 11B) A proposed model of activating the PI3K/AKT pathway after nintedanib treatment. An arrow: a direct interaction. Western blot analyses and the preparations of whole-cell lysates have been previously described^14, 16, 27 For whole cell lysates, cells were lysed in a lysis buffer (50 mM Tris-HCl (pH 7.4), 1% Triton X-100, 10% glycerol, 150 mM NaCl, 1 mM EDTA, 20 μg/ml leupeptin, 1 mM PMSF and 20 μg/ml aprotinin) and separated by SDS-PAGE. Immunoblotting was conducted with appropriate antibodies followed by chemiluminescent detection. For immunofluorescent staining, after an antigen retrieval step, tissue slides were reacted with antibodies against FITC-labeled α-SMA and TRITC-conjugated phospho-MARCKS, and nuclei were demarcated with DAPI staining. The cells were mounted onto slides and visualized using fluorescence microscopy (model Axiovert 100; Carl Zeiss, Oberkochen, Germany) or a Zeiss LSM510 laser-scanning confocal microscope image system.

In the case of `COC(=O)c1ccc2c(c1)NC(=O)/C2=C(\Nc1ccc(N(C)C(=O)CN2CCN(C)CC2)cc1)c1ccccc1` [nintedanib, reference compound], the phospho-AKT is reported as “no change”.

`COC(=O)c1ccc2c(c1)NC(=O)/C2=C(\Nc1ccc(N(C)C(=O)CN2CCN(C)CC2)cc1)c1ccccc1` [nintedanib, reference compound] was tested, and the α-SMA expression was “increase”.

system: primary IPF fibroblasts; experiment: Combination of nintedanib and MPS peptide, cell viability by MTT, Chou and Talalay CI; type: cell-based, human; conditions: nintedanib 62.5-2000 nM and/or MPS 6.25-200 μM, 72 hours
Description: FIGS. 12A-12E: (FIGS. 12A-12B) Combinatorial effect of MPS peptide with nintedanib on fibroblasts isolated from two IPF patients. Cells were treated with various closes of nintedanib (62.5-2000 nM) and/or MPS peptide (6.25-200 μM) for 72 hours, respectively. After single ([…]) or combined ([…]) treatment, cell viability was determined by MTT assays. (FIG. 12C) The Chou and Talalay CI (combination index) method was utilized to evaluate the therapeutic interactions between nintedanib and MPS peptide using the Calcusyn software. Gray line, additive effect of the combination of MPS peptide and the drug is represented at CI=1. (FIG. 12D) Cells were individually treated with 1 μM nintedanib, 100 μM MPS peptide or combinations of 1 μM nintedanib and 100 μM MPS peptide. After 48 hours, cell viability was determined by the trypan blue exclusion assay (n+3; *, p<0.05). […] Molecular basis of MPS peptide and its potential for increasing nintedanib efficacy. […] A kinetic assay confirmed that this peptide binds PIP2 with a dissociation constant of 17.64 nM (FIG. 10B). As expected, a decrease of PIP3 pools in whole cell lysates of MPS-treated IPF fibroblasts was observed (FIG. 10C), supporting the notion that MPS peptide is able to inhibit AKT activation through trapping PIP2. […]

In the case of `COC(=O)c1ccc2c(c1)NC(=O)/C2=C(\Nc1ccc(N(C)C(=O)CN2CCN(C)CC2)cc1)c1ccccc1` [nintedanib, reference compound], the Cell viability is reported as “decreased”.

system: H1650 cells; experiment: not given; type: cell-based; conditions: not given
Description: IC50 (half maximal inhibitory concentration; μM) values in lung cancer cells. […] The residues marked in red/bold are D-isoforms of amino acids (SEQ ID NOS: 57, 48-54, 40-42 45 and 47 in order of appearance).
Molecular basis of MPS peptide and its potential for increasing nintedanib efficacy. […] A kinetic assay confirmed that this peptide binds PIP2 with a dissociation constant of 17.64 nM (FIG. 10B). As expected, a decrease of PIP3 pools in whole cell lysates of MPS-treated IPF fibroblasts was observed (FIG. 10C), supporting the notion that MPS peptide is able to inhibit AKT activation through trapping PIP2. In view of adverse effects of the current IPF therapeutic nintedanib^9, 10, there is an urgent clinical need to improve the efficacy of such treatment in IPF. Since the TGF-β receptor is not a direct target of nintedanib, targeting an element of TGF-β signaling in tandem with nintedanib administration circumvents the shortcomings of nintedanib monotherapy. […] Based on the above observations, it is assumed that TGF-β-directed phospho-MARCKS is a bypass mechanism of activating PI3K/AKT signaling (FIG. 11B); therefore, it seems reasonable that MARCKS inhibition by MPS treatment may improve nintedanib efficacy, permitting lower doses of nintedanib to be used. To this end, the possibility of a synergistic interaction between MPS and nintedanib in order to circumvent the shortcomings of nintedanib monotherapy was tested. […] Furthermore, the Chou and Talalay CI (combination index) method^25 was used to evaluate the therapeutic interactions between nintedanib and MPS peptide. […] Particularly, the values were lower than 1 at ED50, approximately 1 at ED75, and above 1 at ED90 (data not shown). Thus, the combination effect was dose-dependently correlated with the components, and therefore low dose nintedanib in combination with low dose of MPS presents a synergistic effect on cell proliferation. […] On the basis of the sequences of MPS peptide, the rearrangement of PIP2-binding sites in this peptide were designed and synthesized with the intention of enhancing the efficacy and stability of the MPS peptide. FIG. 13 lists the sequences of various MPS derivatives. In light of the cleavage sites of various proteases and PIP2 binding motifs, Applicant replaced some L-isoform amino acids with D-isoform and these peptides were named as MPS-12042 and MPS-22026. To further validate the efficacy of the above MPS derivatives, Applicant performed a dose-course analysis of H1650 cells undergoing each MPS derivative treatment.

Point of comparison: “Ac-KKKKKRFSFKKSFKLSGFSFKKNKK-NH2 [MPS-11200]”, IC50 78 µM. Against it:
- CC(C)C[C@@H](NC(=O)[C@@H](C)NC(=O)[C@@H](Cc1ccccc1)NC(=O)[C@@H](C)NC(=O)CNC(=O)[C@@H](Cc1ccccc1)NC(=O)[C@H](C)NC(=O)[C@@H](Cc1ccccc1)NC(=O)[C@H](CCCCN)NC(=O)[C@H](CCCCN)NC(=O)[C@H](CCCCN)NC(=O)[C@H](CCCCN)NC(=O)[C@@H](N)CCCCN)C(=O)N[C@@H](CCCCN)C(=O)N[C@H](CCCCN)C(=O)N[C@H](Cc1ccccc1)C(=O)N[C@@H](C)C(=O)N[C@H](Cc1ccccc1)C(=O)N[C@H](CCCNC(=N)N)C(=O)N[C@H](CCCCN)C(=O)N[C@@H](CCCCN)C(=O)N[C@@H](CCCCN)C(=O)N[C@@H](CC(N)=O)C(=O)N[C@H](CCCCN)C(=O)N[C@@H](CCCCN)C(=O)O [MPS-22026] (H-KKKKK[dF]A[dF]G[dA][dF][dA][dL]K[dK][dF]A[dF][dR][dK]KKN[dK]K-OH; N-terminus and C-terminus assumed) — 7.1-fold lower, 11 µM
- AKKKKRFSFKKSFKLSGFSFKKNKK [MPS-11001] — within 1.5-fold, 85 µM
- FSFGSFSLKKFSFRKKKNKK [MPS-21010] — within 1.5-fold, 83 µM
- KKAKKRFSFKKSFKLSGFSFKKNKK [MPS-11003] — within 1.5-fold, 85 µM
- KKKKFAFGAFALKKFAFRKKKNKK [MPS-21026] — 1.6-fold lower, 49 µM
- KKKKFSFGSFSLKKFSFRKKKNKK [MPS-21020] — within 1.5-fold, 64 µM
- KKKKKAFSFKKSFKLSGFSFKKNKK [MPS-11006] — within 1.5-fold, 79 µM
- KKKKKRFSFAKSFKLSGFSFKKNKK [MPS-11010] — within 1.5-fold, 73 µM
- KKKKKRFSFKASFKLSGFSFKKNKK [MPS-11011] — 2.7-fold lower, 29 µM
- KKKKKRFSFKKSFKLSGFSFKANKK [MPS-11022] — within 1.5-fold, 83 µM

system: IPF fibroblast cells; experiment: cells; type: cell-based, human; conditions: Homo sapiens; IPF fibroblast cells, 72 hours; read-out: IC50 inhibiting IPF fibroblast proliferation
Description: FIG. 14: Comparison of MPS-12042 (SEQ ID NO: 45) versus know tyrosine kinase inhibitor (TKLs) on the treatment of IPF fibroblast cells. Both normal and IPF lung fibroblast cells were treated with various drugs. After 72 hours, cells were subjected to MTT assays and IC50 for each drug was determined.
Human primary fibroblast cells were obtained from airway tissues provided from the UC Davis Medical Hospital (Sacramento, Calif.) with consent. The protocol for human tissue procurement and usage were periodically reviewed and approved by the University Human Subject Research Review Committee. Primary fibroblast cell lines, IPF-1 and IPF-2 cells, were established from IPF patients. Cells were obtained from lung biopsies and the diagnosis of IPF was supported by patient history, physical examination, pulmonary function tests, and typical high-resolution chest computed tomography findings of IPF. […] All patients fulfilled the criteria for the diagnosis of IPF as established by the American Thoracic Society and European Respiratory Society. Non-fibrotic primary control adult human lung fibroblast lines, Normal-1 and Normal-2 cells were used. These lines were established from normal lung tissue or histologically normal lung tissue adjacent to carcinoid tumor. The IPF cell line, LL97A, was purchased from the American Type Culture Collection (ATCC) (Manassas, Va.). Lung fibroblast lines were cultured in high-glucose DMEM or RPMI-1640 medium with 10% fetal bovine serum and 1% penicillin-streptomycin at 37° C. in a humidified atmosphere of 5% CO2. Fibroblasts were used between passages 4 and 8. Cells were characterized as fibroblasts as described^26.
Cells were seeded onto 96-well plates at a density of 5-10×10^3 cells per well and cultured for the indicated treatment. Cell proliferation was evaluated using a MTS assay kit (Promega, Madison, Wis.). Twenty microliters of the combined MTS/PMS solution was added into each well, incubated for 3 hours at 37° C., and the absorbance was measured at 490 nm by using an ELISA reader. For Trypan blue test, cells were plated on 12-well plates and treated with the indicated chemotherapeutic agents. After 72 hours, both attached and detached cells were collected and then stained with 0.2% trypan blue (0.1% final concentration), and the number of trypan blue-positive and -negative cells was counted using a haemocytometer under low-power microscopy. For colony-forming assays, 200 cells were seeded in each well of six-well plates. IPF-1 or IPF-2 primary cells were treated with peptides at the indicated concentrations for 10 days. Colonies were stained using 0.001% crystal violet and the number of colonies with a diameter greater than 0.5 mm was counted under an inverted microscope.

With `COC(=O)c1ccc2c(c1)NC(=O)/C2=C(\Nc1ccc(N(C)C(=O)CN2CCN(C)CC2)cc1)c1ccccc1` [nintedanib, reference compound] the IC50 was 13.8 to 15.9 µM.
